{
  "source": "patent US11229636B2",
  "about": "“Substituted tetrahydroquinolinone compounds as ROR gamma modulators” (Aurigene Discovery Technologies Limited, priority 2015, dated 2022)",
  "data": [
    {"molecular_target": "ROR gamma ligand binding domain (Homo sapiens (Human), UniProt P51449)", "sequence (P51449 269-508)": "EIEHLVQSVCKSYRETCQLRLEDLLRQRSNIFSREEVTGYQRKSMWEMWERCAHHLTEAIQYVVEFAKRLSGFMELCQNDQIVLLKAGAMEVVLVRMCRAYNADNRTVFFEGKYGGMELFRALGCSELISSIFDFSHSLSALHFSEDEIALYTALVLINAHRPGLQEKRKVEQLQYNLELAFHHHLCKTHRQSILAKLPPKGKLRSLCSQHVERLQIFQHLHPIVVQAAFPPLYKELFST", "experiment": "ROR gamma luciferase reporter assay (GAL4-ROR gamma LBD, HEK293 cells)", "format": "cell-based", "conditions": "48 hours treatment, read-out: RORγ luciferase Reporter assay: IC50 (nM) (in range)", "experimental": "The Ligand Binding Domain (LBD) of ROR gamma was cloned into pFN26A (BIND) hRluc-neo Flexi vector (Promega) which expresses a fusion protein comprised of a DNA binding domain of the yeast GAL4 gene, a linker segment and ROR gamma ligand binding domain. For the reporter assay 0.02×10^6 HEK293 cells were seeded per well in a 96 well plate in complete media and incubated overnight in an incubator with 5% CO2 at 37° C. before transfection. Cells were then co-transfected with pFN26A hRluc-neo Flexi vector containing the LBD of ROR gamma and pGL4.35 [luc2P/9XGAL4 UAS/Hygro] Vector (Promega) in low serum media. Post transfection and recovery, cells were treated with the test compounds for 48 hours. The assay was terminated using the Bright-Glo Luciferase assay system from Promega and the Luminescence was measured using a luminescence reader. The luminescence values were used to calculate the potency of the compounds.", "units": {"IC50": "nM"}, "values": [
      {"smiles": "CCS(=O)(=O)c1ccc(CC(=O)Nc2ccc3c(n2)CCC(C)(c2cc(C)nc(C)n2)C3=O)nc1", "note": "(single isomer, unassigned) [compound 124, N-(6-(2,6-dimethylpyrimidin-4-yl)-6-methyl-5-oxo-5,6,7,8-tetrahydroquinolin-2-yl)-2-(5-(ethylsulfonyl)pyridin-2-yl)acetamide]", "IC50": "100 to 500"},
      {"smiles": "CCS(=O)(=O)c1ccc(CNC(=O)c2ccc3c(n2)CCC(C)(c2cc(C)nc(C)n2)C3=O)cc1", "note": "(single isomer, unassigned) [compound 125, 6-(2,6-dimethylpyrimidin-4-yl)-N-(4-(ethylsulfonyl)benzyl)-6-methyl-5-oxo-5,6,7,8-tetrahydroquinoline-2-carboxamide]", "IC50": "< 100"},
      {"smiles": "CCS(=O)(=O)c1ccc(CNC(=O)c2ccc3c(n2)CCC(C)(c2cc(C)nc(C)n2)C3=O)cc1", "note": "(single isomer, unassigned) [compound 126, 6-(2,6-dimethylpyrimidin-4-yl)-N-(4-(ethylsulfonyl)benzyl)-6-methyl-5-oxo-5,6,7,8-tetrahydroquinoline-2-carboxamide]", "IC50": "> 500"},
      {"smiles": "CCS(=O)(=O)c1ccc(CC(=O)Nc2ccc3c(n2)C(C)CC(C)(c2nccn4ccnc24)C3=O)cc1", "note": "(stereo not drawn) [Compound 48, 2-(4-(ethylsulfonyl)phenyl)-N-(6-(imidazo[1,2-a]pyrazin-8-yl)-6,8-dimethyl-5-oxo-5,6,7,8-tetrahydroquinolin-2-yl)acetamide]", "IC50": "> 500"},
      {"smiles": "CCS(=O)(=O)c1ccc(CC(=O)Nc2ccc3c(n2)CCC(C)(c2nc(C)cn4cc(C)nc24)C3=O)cc1", "note": "(stereo not drawn) [Compound 51, N-(6-(2,6-dimethylimidazo[1,2-a]pyrazin-8-yl)-6-methyl-5-oxo-5,6,7,8-tetrahydroquinolin-2-yl)-2-(4-(ethylsulfonyl)phenyl)acetamide]", "IC50": "< 100"},
      {"smiles": "CCS(=O)(=O)c1ccc(CC(=O)Nc2cc(C)c3c(n2)CCC(C)(c2nccn4cc(C)nc24)C3=O)cc1", "note": "(stereo not drawn) [Compound 52, N-(4,6-dimethyl-6-(2-methylimidazo[1,2-a]pyrazin-8-yl)-5-oxo-5,6,7,8-tetrahydroquinolin-2-yl)-2-(4-(ethylsulfonyl)phenyl)acetamide]", "IC50": "< 100"},
      {"smiles": "CCS(=O)(=O)c1ccc(CC(=O)Nc2cc(C)c3c(n2)CCC(C)(c2ccc(C(F)(F)F)nn2)C3=O)cc1", "note": "(stereo not drawn) [Compound 53, N-(4,6-dimethyl-5-oxo-6-(6-(trifluoromethyl)pyridazin-3-yl)-5,6,7,8-tetrahydroquinolin-2-yl)-2-(4-(ethylsulfonyl)phenyl)acetamide]", "IC50": "> 500"},
      {"smiles": "CCS(=O)(=O)c1ccc(CC(=O)Nc2ccc3c(n2)CCC(C)(c2ccc(OC(C)C)nn2)C3=O)cc1", "note": "(stereo not drawn) [Compound 57, 2-(4-(ethylsulfonyl)phenyl)-N-(6-(6-isopropoxypyridazin-3-yl)-6-methyl-5-oxo-5,6,7,8-tetrahydroquinolin-2-yl)acetamide]", "IC50": "> 500"},
      {"smiles": "CCS(=O)(=O)c1ccc(CC(=O)Nc2ccc3c(n2)CCC(C)(c2nccn4cc(C)nc24)C3=O)c(F)c1", "note": "(stereo not drawn) [Compound 58, 2-(4-(ethylsulfonyl)-2-fluorophenyl)-N-(6-methyl-6-(2-methylimidazo[1,2-a]pyrazin-8-yl)-5-oxo-5,6,7,8-tetrahydroquinolin-2-yl)acetamide]", "IC50": "100 to 500"},
      {"smiles": "Cc1cn2ccnc(C3(C)CCc4nc(NC(=O)Cc5ccc(S(C)(=O)=O)cc5)ccc4C3=O)c2n1", "note": "(stereo not drawn) [Compound 59, N-(6-methyl-6-(2-methylimidazo[1,2-a]pyrazin-8-yl)-5-oxo-5,6,7,8-tetrahydroquinolin-2-yl)-2-(4-(methylsulfonyl)phenyl)acetamide]", "IC50": "> 500"},
      {"smiles": "CCS(=O)(=O)c1ccc(CC(=O)Nc2ccc3c(n2)CCC(C)(c2cnc(C(C)C)cn2)C3=O)cc1", "note": "(stereo not drawn) [Compound 60, 2-(4-(ethylsulfonyl)phenyl)-N-(6-(5-isopropylpyrazin-2-yl)-6-methyl-5-oxo-5,6,7,8-tetrahydroquinolin-2-yl)acetamide]", "IC50": "100 to 500"},
      {"smiles": "CCS(=O)(=O)c1ccc(CC(=O)Nc2ccc3c(n2)CCC(C)(c2cc(C)nc(OC)n2)C3=O)cc1", "note": "(stereo not drawn) [Compound 64, 2-(4-(ethylsulfonyl)phenyl)-N-(6-(2-methoxy-6-methylpyrimidin-4-yl)-6-methyl-5-oxo-5,6,7,8-tetrahydroquinolin-2-yl)acetamide]", "IC50": "< 100"},
      {"smiles": "CCS(=O)(=O)c1ccc(CC(=O)Nc2ccc3c(n2)CCC(C)(c2cc(OC)nc(C)n2)C3=O)cc1", "note": "(stereo not drawn) [Compound 65, 2-(4-(ethylsulfonyl)phenyl)-N-(6-(6-methoxy-2-methylpyrimidin-4-yl)-6-methyl-5-oxo-5,6,7,8-tetrahydroquinolin-2-yl)acetamide]", "IC50": "< 100"},
      {"smiles": "CCS(=O)(=O)c1ccc(CC(=O)Nc2ccc3c(n2)CCC(C)(c2nccn4c(F)c(C)nc24)C3=O)cc1", "note": "(stereo not drawn) [Compound 66, 2-(4-(ethylsulfonyl)phenyl)-N-(6-(3-fluoro-2-methylimidazo[1,2-a]pyrazin-8-yl)-6-methyl-5-oxo-5,6,7,8-tetrahydroquinolin-2-yl)acetamide]", "IC50": "< 100"},
      {"smiles": "CCS(=O)(=O)c1ccc(CC(=O)Nc2ccc3c(n2)CCC(C)(c2cc(C(F)(F)F)nc(C)n2)C3=O)cc1", "note": "(stereo not drawn) [Compound 67, 2-(4-(ethylsulfonyl)phenyl)-N-(6-methyl-6-(2-methyl-6-(trifluoromethyl)-pyrimidin-4-yl)-5-oxo-5,6,7,8-tetrahydroquinolin-2-yl)acetamide]", "IC50": "> 500"},
      {"smiles": "CCS(=O)(=O)c1ccc(CC(=O)Nc2ccc3c(n2)CCC(C)(c2ncc(C)n4ccnc24)C3=O)cc1", "note": "(stereo not drawn) [Compound 68, 2-(4-(ethylsulfonyl)phenyl)-N-(6-methyl-6-(5-methylimidazo[1,2-a]pyrazin-8-yl)-5-oxo-5,6,7,8-tetrahydroquinolin-2-yl)acetamide]", "IC50": "100 to 500"},
      {"smiles": "CCS(=O)(=O)c1ccc(CC(=O)Nc2cc(C)c3c(n2)CCC(C)(c2ccc(=O)n(C)n2)C3=O)cc1", "note": "(stereo not drawn) [Compound 70, N-(4,6-dimethyl-6-(1-methyl-6-oxo-1,6-dihydropyridazin-3-yl)-5-oxo-5,6,7,8-tetrahydroquinolin-2-yl)-2-(4-(ethylsulfonyl)phenyl)acetamide]", "IC50": "> 500"},
      {"smiles": "CCS(=O)(=O)c1ccc(CC(=O)Nc2ccc3c(n2)CCC(C)(c2nccn4c(C5CC5)cnc24)C3=O)cc1", "note": "(stereo not drawn) [Compound 71, N-(6-(3-cyclopropylimidazo[1,2-a]pyrazin-8-yl)-6-methyl-5-oxo-5,6,7,8-tetrahydroquinolin-2-yl)-2-(4-(ethylsulfonyl)phenyl)acetamide]", "IC50": "100 to 500"},
      {"smiles": "CCS(=O)(=O)c1ccc(CC(=O)Nc2ccc3c(n2)CCC(C)(c2nccn4cc(C(F)(F)F)nc24)C3=O)cc1", "note": "(stereo not drawn) [Compound 72, 2-(4-(ethylsulfonyl)phenyl)-N-(6-methyl-5-oxo-6-(2-(trifluoromethyl)-imidazo[1,2-a]pyrazin-8-yl)-5,6,7,8-tetrahydroquinolin-2-yl)acetamide]", "IC50": "< 100"},
      {"smiles": "CCS(=O)(=O)c1ccc(CC(=O)Nc2cc(C)c3c(n2)CCC(C)(c2cc(OC)cnn2)C3=O)cc1", "note": "(stereo not drawn) [Compound 73, 2-(4-(ethylsulfonyl)phenyl)-N-(6-(5-methoxypyridazin-3-yl)-4,6-dimethyl-5-oxo-5,6,7,8-tetrahydroquinolin-2-yl)acetamide]", "IC50": "> 500"},
      {"smiles": "CCS(=O)(=O)c1ccc(CC(=O)Nc2ccc3c(n2)CCC(C)(c2nccn4c(C(F)(F)F)cnc24)C3=O)cc1", "note": "(stereo not drawn) [Compound 74, 2-(4-(ethylsulfonyl)phenyl)-N-(6-methyl-5-oxo-6-(3-(trifluoromethyl)-imidazo[1,2-a]pyrazin-8-yl)-5,6,7,8-tetrahydroquinolin-2-yl)acetamide]", "IC50": "< 100"},
      {"smiles": "CCS(=O)(=O)c1ccc(CC(=O)Nc2cc(C)c3c(n2)CCC(C)(c2ccc4nc(C)cn4n2)C3=O)cc1", "note": "(stereo not drawn) [Compound 75, N-(4,6-dimethyl-6-(2-methylimidazo[1,2-b]pyridazin-6-yl)-5-oxo-5,6,7,8-tetrahydroquinolin-2-yl)-2-(4-(ethylsulfonyl)phenyl)acetamide]", "IC50": "100 to 500"},
      {"smiles": "CCS(=O)(=O)c1ccc(CC(=O)Nc2cc(C)c3c(n2)CCC(C)(c2cc(C4CC4)c(OC)nn2)C3=O)cc1", "note": "(stereo not drawn) [Compound 76, N-(6-(5-cyclopropyl-6-methoxypyridazin-3-yl)-4,6-dimethyl-5-oxo-5,6,7,8-tetrahydroquinolin-2-yl)-2-(4-(ethylsulfonyl)phenyl)acetamide]", "IC50": "100 to 500"},
      {"smiles": "CCS(=O)(=O)c1ccc(CC(=O)Nc2cc(C)c3c(n2)CCC(C)(c2ccc4nccn4n2)C3=O)cc1", "note": "(stereo not drawn) [Compound 77, 2-(4-(ethylsulfonyl)phenyl)-N-(6-(imidazo[1,2-b]pyridazin-6-yl)-4,6-dimethyl-5-oxo-5,6,7,8-tetrahydroquinolin-2-yl)acetamide]", "IC50": "100 to 500"},
      {"smiles": "CCS(=O)(=O)c1ccc(CC(=O)Nc2ccc3c(n2)CCC(C)(c2cc(C)nc(C(F)(F)F)n2)C3=O)cc1", "note": "(stereo not drawn) [Compound 78, 2-(4-(ethylsulfonyl)phenyl)-N-(6-methyl-6-(6-methyl-2-(trifluoromethyl)-pyrimidin-4-yl)-5-oxo-5,6,7,8-tetrahydroquinolin-2-yl)acetamide]", "IC50": "100 to 500"},
      {"smiles": "CCS(=O)(=O)c1ccc(CC(=O)Nc2ccc3c(n2)CC(C)C(C)(c2cc(C)nc(C)n2)C3=O)cc1", "note": "(stereo not drawn) [Compound 81, N-(6-(2,6-dimethylpyrimidin-4-yl)-6,7-dimethyl-5-oxo-5,6,7,8-tetrahydroquinolin-2-yl)-2-(4-(ethylsulfonyl)phenyl)acetamide]", "IC50": "< 100"},
      {"smiles": "CCS(=O)(=O)c1ccc(CC(=O)Nc2ccc3c(n2)CC(C)C(c2cc(C)nc(C)n2)C3=O)cc1", "note": "(stereo not drawn) [Compound 82, N-(6-(2,6-dimethylpyrimidin-4-yl)-7-methyl-5-oxo-5,6,7,8-tetrahydroquinolin-2-yl)-2-(4-(ethylsulfonyl)phenyl)acetamide]", "IC50": "> 500"}
    ]}
  ]
}
